Measurements as given in US12187773B2, “Modified GIP peptide analogues” (Antag Therapeutics ApS, priority 2018, dated 2025).
Where a SMILES comes first, the peptide text is derived from it. The star is where a group is joined. C16 diacid = O=C(O)CCCCCCCCCCCCCCC(=O)*

Key:
Format in all cases: cell-based
human GIP receptor [1] = biological target: T1, human GIP receptor (Homo sapiens, UniProt P48546); test: cAMP antagonism (CisBio cAMP Dynamic 2 HTRF assay); design: pCMV-Script vector; conditions: CisBio, HEK-293 cells; for IC50: cAMP antagonism, agonist GIP1-42 at EC50
T1 sequence (P48546 22-466): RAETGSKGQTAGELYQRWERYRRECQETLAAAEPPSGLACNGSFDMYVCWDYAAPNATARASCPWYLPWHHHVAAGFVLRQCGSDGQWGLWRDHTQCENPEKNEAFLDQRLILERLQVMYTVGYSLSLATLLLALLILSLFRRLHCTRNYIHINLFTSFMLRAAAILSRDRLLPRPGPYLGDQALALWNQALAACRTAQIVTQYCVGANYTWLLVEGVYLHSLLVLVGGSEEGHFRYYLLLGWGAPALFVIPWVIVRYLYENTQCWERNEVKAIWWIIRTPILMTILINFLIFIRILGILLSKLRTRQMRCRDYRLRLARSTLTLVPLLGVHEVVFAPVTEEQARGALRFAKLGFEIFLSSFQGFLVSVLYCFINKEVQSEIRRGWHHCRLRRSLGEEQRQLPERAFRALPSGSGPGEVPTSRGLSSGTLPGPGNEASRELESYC
Method: The in vitro functional activity of compounds towards human GIP receptor can also be determined in HEK-293 cells transiently expressing the receptor. On the day of the assay, cells were resuspended in HBSS buffer (Gibco, 14025-50) supplemented with 20 mM HEPES (Gibco, 15630-106), 0,1% Pluronic F-68 (Gibco, 24040-032) and 0,1% casein (Sigma, C4765), and plated in 384-well plates at a density of 5000 cells/well. The GIP peptide analogues of the present disclosure were diluted in HBSS buffer supplemented with 20 mM HEPES, 0,1% pluronic, 0,1% casein and 500 uM IBMX. […] The resulting decrease in intracellular cAMP was quantitatively determined using the CisBio cAMP Dynamic 2 HTRF Assay Kit. The assay is based on a competition between native cAMP produced by cells and cAMP labeled with the dye d2 for binding to a cryptate labeled antibody. The specific signal (i.e. energy transfer signal) is inversely proportional to the concentration of cAMP in the sample.
The cAMP-d2 conjugate and the antibody anti-cAMP-Cryptate, both diluted in lysis buffer provided in the kit, were added to the cells according to the manufacturer's protocol. The resulting competitive assay was incubated for 60 minutes at room temperature, and the signal was detected by using a PerkinElmer Envision® instrument with excitation at 320 nm and emission at 665 nm and 620 nm. The HTRF ratio (emission at 665 nm/620 nm*10,000) is inversely proportional to the amount of cAMP present and is converted to nM cAMP per well using a cAMP standard curve. The dose-response curves were fitted using the non-linear regression analysis (four-logistic parameter equation) in GraphPad Prism, whereby pIC50 values were estimated.

human GIP receptor [2] = biological target: T1, human GIP receptor; test: cAMP agonism (CisBio cAMP Dynamic 2 HTRF assay); conditions: HEK293, read-out: cAMP agonism, % Efficacy, Table 1C, HEK-293 cells
Method: To test for agonistic properties at the GIP receptor, compounds were diluted and added to cells as described above and incubated for 30 min at 37° C. The resulting increase in intracellular cAMP was determined using the CisBio cAMP Dynamic 2 HTRF Assay Kit as described above.

human GIP receptor [3] = biological target: T1, human GIP receptor; test: cAMP accumulation, agonism (DiscoveRx HitHunter cAMP XS assay); design: host or cells: COS-7 (transient, calcium phosphate; pCMV-Script vector); conditions: COS-7, read-out: cAMP agonism, Emax
Method: Transient transfected COS-7 cells expressing the human GIP receptor were seeded in white 96-well plates with a density of 3.5*10^4/well. The day after, the cells were washed twice with Hepes buffered saline (HBS) buffer and incubated with HBS and 1 mM 3-isobutyl-1-methylxanthine (IBMX) for 30 min at 37° C. To test for agonistic properties, ligands were added and incubated for 30 min at 37° C. In order to test for antagonistic properties, the cells were preincubated with the antagonists for 10 min prior to the addition of the agonist and subsequent incubated for 20 additional min. The HitHunter™ cAMP XS assay (DiscoveRx) was carried out according to the manufacturer's instructions.
In order to develop a GIP receptor antagonist with improved antagonistic properties, individual amino acid substitutions were conducted on GIP(3-30)NH2 and in particular at positions: 16, 18, 30 or 3, 16, 18, 30. The obtained peptides were lipidated at position 18 directly or via a linker. Both the agonistic and antagonistic profiles of the compounds were tested in cAMP accumulation experiments done in transiently transfected COS-7 cells expressing the human GIP receptor. To investigate if these mutated analogues still retained their antagonistic properties, their ability to inhibit a GIP-mediated cAMP response corresponding to 50-80% of maximum activation was examined.

Compound	cAMP antagonism, % inhib (human GIP receptor [1]; Table 1C) [%]	IC50 (human GIP receptor [1]; nM (IC50), Table 1C) [nM]	Emax (human GIP receptor [2]) [%]	Emax (human GIP receptor [3]) [%]	IC50 (human GIP receptor [1]; pIC50, Table 1C) [nM]
CC[C@H](C)[C@H](NC(=O)[C@H](CO)NC(=O)[C@H](Cc1ccc(O)cc1)NC(=O)[C@H](CC(=O)O)NC(=O)[C@H](CO)NC(=O)[C@@H](NC(=O)[C@H](Cc1ccccc1)NC(=O)[C@@H](NC(=O)CNC(=O)[C@@H]1CCCN1)[C@@H](C)O)[C@@H](C)CC)C(=O)N[C@@H](C)C(=O)N[C@@H](CCSC)C(=O)N[C@@H](CC(=O)O)C(=O)N[C@@H](CCCNC(=N)N)C(=O)N[C@H](C(=O)N[C@@H](CCCCNC(=O)CCCCCCCCCCCCCCC(=O)O)C(=O)N[C@@H](CCC(N)=O)C(=O)N[C@@H](CCC(N)=O)C(=O)N[C@@H](CC(=O)O)C(=O)N[C@@H](Cc1ccccc1)C(=O)N[C@H](C(=O)N[C@@H](CC(N)=O)C(=O)N[C@@H](Cc1c[nH]c2ccccc12)C(=O)N[C@@H](CC(C)C)C(=O)N[C@@H](CC(C)C)C(=O)N[C@@H](C)C(=O)N[C@@H](CCC(N)=O)C(=O)N[C@@H](CCCNC(=N)N)C(=O)O)C(C)C)[C@@H](C)CC [AT261] (H-PGTFISDYSIAMDRIK(C16 diacid)QQDFVNWLLAQR-OH; N-terminus assumed)	62	200	0	24	
CC[C@H](C)[C@H](NC(=O)[C@H](CO)NC(=O)[C@H](Cc1ccc(O)cc1)NC(=O)[C@H](CC(=O)O)NC(=O)[C@H](CO)NC(=O)[C@@H](NC(=O)[C@H](Cc1ccccc1)NC(=O)[C@@H](NC(=O)CNC(=O)CN)[C@@H](C)O)[C@@H](C)CC)C(=O)N[C@@H](C)C(=O)N[C@@H](CCSC)C(=O)N[C@@H](CC(=O)O)C(=O)N[C@@H](CCCNC(=N)N)C(=O)N[C@H](C(=O)N[C@@H](CCCCNC(=O)CC[C@H](NC(=O)CCCCCCCCCCCCCCC(=O)O)C(=O)O)C(=O)N[C@@H](CCC(N)=O)C(=O)N[C@@H](CCC(N)=O)C(=O)N[C@@H](CC(=O)O)C(=O)N[C@@H](Cc1ccccc1)C(=O)N[C@H](C(=O)N[C@@H](CC(N)=O)C(=O)N[C@@H](Cc1c[nH]c2ccccc12)C(=O)N[C@@H](CC(C)C)C(=O)N[C@@H](CC(C)C)C(=O)N[C@@H](C)C(=O)N[C@@H](CCC(N)=O)C(=O)N[C@@H](CCCNC(=N)N)C(=O)O)C(C)C)[C@@H](C)CC [AT263] (HELM PEPTIDE1{G.G.T.F.I.S.D.Y.S.I.A.M.D.R.I.K.Q.Q.D.F.V.N.W.L.L.A.Q.R}|PEPTIDE2{[O=C(O)CCCCCCCCCCCCCCC(=O)[*:2]].[gGlu]}$PEPTIDE1,PEPTIDE2,16:R3-2:R2$$$V2.0; N-terminus assumed)	69	21	0	8	200
CC[C@H](C)[C@H](NC(=O)[C@H](CO)NC(=O)[C@H](Cc1ccc(O)cc1)NC(=O)[C@H](CC(=O)O)NC(=O)[C@H](CO)NC(=O)[C@@H](NC(=O)[C@H](Cc1ccccc1)NC(=O)[C@@H](NC(=O)CNC(=O)[C@@H](N)CO)[C@@H](C)O)[C@@H](C)CC)C(=O)N[C@@H](C)C(=O)N[C@@H](CCSC)C(=O)N[C@@H](CC(=O)O)C(=O)N[C@@H](CCCNC(=N)N)C(=O)N[C@H](C(=O)N[C@@H](CCCCNC(=O)CC[C@H](NC(=O)CCCCCCCCCCCCCCC(=O)O)C(=O)O)C(=O)N[C@@H](CCC(N)=O)C(=O)N[C@@H](CCC(N)=O)C(=O)N[C@@H](CC(=O)O)C(=O)N[C@@H](Cc1ccccc1)C(=O)N[C@H](C(=O)N[C@@H](CC(N)=O)C(=O)N[C@@H](Cc1c[nH]c2ccccc12)C(=O)N[C@@H](CC(C)C)C(=O)N[C@@H](CC(C)C)C(=O)N[C@@H](C)C(=O)N[C@@H](CCC(N)=O)C(=O)N[C@@H](CCCNC(=N)N)C(=O)O)C(C)C)[C@@H](C)CC [AT265] (HELM PEPTIDE1{S.G.T.F.I.S.D.Y.S.I.A.M.D.R.I.K.Q.Q.D.F.V.N.W.L.L.A.Q.R}|PEPTIDE2{[O=C(O)CCCCCCCCCCCCCCC(=O)[*:2]].[gGlu]}$PEPTIDE1,PEPTIDE2,16:R3-2:R2$$$V2.0; N-terminus assumed)	73	58.4	8	10	
CC[C@H](C)[C@H](NC(=O)[C@H](CO)NC(=O)[C@H](Cc1ccc(O)cc1)NC(=O)[C@H](CC(=O)O)NC(=O)[C@H](CO)NC(=O)[C@@H](NC(=O)[C@H](Cc1ccccc1)NC(=O)[C@@H](NC(=O)CNC(=O)[C@@H]1CCCN1)[C@@H](C)O)[C@@H](C)CC)C(=O)N[C@@H](C)C(=O)N[C@@H](CCSC)C(=O)N[C@@H](CC(=O)O)C(=O)N[C@@H](CCCNC(=N)N)C(=O)N[C@H](C(=O)N[C@@H](CCCCNC(=O)CC[C@H](NC(=O)CCCCCCCCCCCCCCC(=O)O)C(=O)O)C(=O)N[C@@H](CCC(N)=O)C(=O)N[C@@H](CCC(N)=O)C(=O)N[C@@H](CC(=O)O)C(=O)N[C@@H](Cc1ccccc1)C(=O)N[C@H](C(=O)N[C@@H](CC(N)=O)C(=O)N[C@@H](Cc1c[nH]c2ccccc12)C(=O)N[C@@H](CC(C)C)C(=O)N[C@@H](CC(C)C)C(=O)N[C@@H](C)C(=O)N[C@@H](CCC(N)=O)C(=O)N[C@@H](CCCNC(=N)N)C(=O)O)C(C)C)[C@@H](C)CC [AT267] (HELM PEPTIDE1{P.G.T.F.I.S.D.Y.S.I.A.M.D.R.I.K.Q.Q.D.F.V.N.W.L.L.A.Q.R}|PEPTIDE2{[O=C(O)CCCCCCCCCCCCCCC(=O)[*:2]].[gGlu]}$PEPTIDE1,PEPTIDE2,16:R3-2:R2$$$V2.0; N-terminus assumed)	52		4	16	
CC[C@H](C)[C@H](NC(=O)[C@H](CO)NC(=O)[C@H](Cc1ccc(O)cc1)NC(=O)[C@H](CC(=O)O)NC(=O)[C@H](CO)NC(=O)[C@@H](NC(=O)[C@H](Cc1ccccc1)NC(=O)[C@@H](NC(=O)CNC(=O)[C@@H](N)CO)[C@@H](C)O)[C@@H](C)CC)C(=O)N[C@@H](C)C(=O)N[C@@H](CCSC)C(=O)N[C@@H](CC(=O)O)C(=O)N[C@@H](CCCNC(=N)N)C(=O)N[C@H](C(=O)N[C@@H](CCCCNC(=O)COCCOCCNC(=O)CC[C@H](NC(=O)CCCCCCCCCCCCCCC(=O)O)C(=O)O)C(=O)N[C@@H](CCC(N)=O)C(=O)N[C@@H](CCC(N)=O)C(=O)N[C@@H](CC(=O)O)C(=O)N[C@@H](Cc1ccccc1)C(=O)N[C@H](C(=O)N[C@@H](CC(N)=O)C(=O)N[C@@H](Cc1c[nH]c2ccccc12)C(=O)N[C@@H](CC(C)C)C(=O)N[C@@H](CC(C)C)C(=O)N[C@@H](C)C(=O)N[C@@H](CCC(N)=O)C(=O)N[C@@H](CCCNC(=N)N)C(=O)O)C(C)C)[C@@H](C)CC [AT271] (HELM PEPTIDE1{S.G.T.F.I.S.D.Y.S.I.A.M.D.R.I.K.Q.Q.D.F.V.N.W.L.L.A.Q.R}|PEPTIDE2{[O=C(O)CCCCCCCCCCCCCCC(=O)[*:2]].[gGlu].[O=C(COCCOCCN[*:1])[*:2]]}$PEPTIDE1,PEPTIDE2,16:R3-3:R2$$$V2.0; N-terminus assumed)	73	85.8	2	9	
